Laboratory results: patent US9662404B2, “Compositions and methods for the delivery of molecules into live cells” (The Texas A&M University System, priority 2013, dated 2017)

Experiments:
[1] = system: HeLa cells; assay: Effect of endocytic inhibitors on cytosolic delivery of dTAT; type: cell-based; settings: 50 μM amiloride or 200 nM bafilomycin pre-treatment, then 5 μM dTAT and inhibitor
Procedure: (§1) FIGS. 8A-8C illustrate that dTAT mediates endosomal escape. (FIG. 8A) Effect of endocytic inhibitors on the cellular distribution of dTAT. HeLa cells were pre-treated with 50 μM amiloride or 200 nM bafilomycin for 30 and 20 min respectively, washed, and incubated with 5 μM dTAT and inhibitor. […] Scale bar, 10 μm. […] A schematic illustration of the experimental steps is shown (top). First, cells were incubated with 5 μM DEAC-K9 for 1 h and washed. Inverted monochrome images show a fluorescence punctuate distribution after incubation with DEAC-K9 alone. The same cells were then incubated with 5 μM dTAT for 1 h. Images show a redistribution of DEAC-K9 to the cytosol and nucleus (inhibited by bafilomycin). Scale bars, 10 μm. (FIG. 8C) The endosomolytic activity of dTAT is highly efficient. HeLa cells expressing SNAPH2B were incubated with 5 μM dTAT and 5 μM SNAP-Surface® 488. Fluorescence images show accumulation of SNAP-Surface® 488 in the nucleus. […] Small panels show cytosolic and nuclear fluorescence of TMR. Scale bars, 10 μm.
(§2) To test whether endosomal escape is involved in delivery of dTAT, the effects of amiloride, a macropinocytosis inhibitor, and bafilomycin, an inhibitor of endosomal acidification, were assessed. […] Cells were then washed and incubated with dTAT (FIG. 8B). […] This redistribution was however inhibited by bafilomycin.

[2] = system: HeLa cells; assay: dTAT-induced cytosolic release of DEAC-K9 trapped inside endosomes; type: cell-based
Procedure: as §1, §2

[3] = system: HeLa cells; assay: Delivery of peptides inside live cells, internalization assessed by fluorescence microscopy; type: cell-based; settings: 1 h incubation
Procedure: The TAT, dTAT and acTAT peptides were incubated for 1 h with several cell lines and internalization was assessed by fluorescence microscopy. […] See also FIG. 5. […] The cell lines HeLa, NIH 3T3, COLO 316 and HaCaT were incubated with 5 μM dTAT for 1 h, washed and imaged. […] After imaging, cells were incubated at 37° C. in a humidified atmosphere containing 5% CO2 for 24 h, washed and imaged again. […] Cell viability was assessed by exclusion of the cell-impermeable nuclear stain SYTOX® Blue at both 1 h and 24 h time point. […] Inverted monochrome (black=fluorescence signal, white-no signal) fluorescence images were made of HeLa cells incubated with 10 or 20 μM of TAT for 1 h.
Live cells from different lines (HeLa, HaCat, NIH 3T3) were grown in Dulbecco's […] (DMEM) (Fisher) supplemented with 10% fetal bovine serum (FBS) (Fisher) and kept at 37° C. in a humidified atmosphere containing 5% CO2. Cells were then seeded in 8-well dishes so that the cells were 80%-90% confluent after 48 h. […] The media (nrL-15) used for incubation lacks cysteine to avoid reduction of the disulfide bond of dTAT. Cells were then incubated with different concentrations of the acTAT, TAT, or dTAT at 37° C. for 1 h. […] Images were collected using a Rolera-MGI Plus back-illuminated EMCCD camera (Qimaging, Surrey, BC, Canada). Images were acquired using bright field imaging and three standard fluorescence filter sets: CFP (Ex=436±10 nm/Em=480±20 nm), RFP (Ex=560±20 nm/Em=630±35 nm), and FITC (Ex=488±10 nm/Em=520±20 nm). The fluorescence intensities of different cells were measured with the SlideBook 4.2 software (Olympus, Center Valley, Pa.) and the average fluorescence intensity was determined for each condition. It has been previously reported that CPPs labeled with fluorophores such as TMR can photosensitize membranes and cause endosomal leakage upon light irradiation. See, Srinivasan, D. et al., “Conjugation to the cell-penetrating peptide TAT potentiates the photodynamic effect of carboxytetramethylrhodamine,” PloS one 6:e17732 (2011) and Muthukrishnan, N., et al., “Synergy Between Cell-Penetrating Peptides and Singlet Oxygen Generators Leads to Efficient Photolysis of Membranes,” Photochemistry and Photobiology 89:625-630 (2012), each incorporated herein by reference in its entirety. […] First, all delivery experiments were performed under conditions of minimal light irradiation (dark room with dim red light). When fluorescence imaging is required, probes (e.g., SNAP surface 488, EGFP) are imaged before dTAT is, thereby minimizing the possible effect of light on endosomal release. For experiments performed with Cre and Hoxb4, cells are not imaged and not exposed to light (not at all for Hoxb4, 12 h after incubation for Cre).

[4] = system: HeLa transfected with the pCALNL-GFP plasmid; type: cell-based
Procedure: The number of cells in the images was approximately the same as assessed by bright field microscopy (1,000 cells/experiment, experiments in triplicate, average and standard deviations represented). Scale bars, 100 μM.
To further confirm that functional proteins can penetrate cells upon incubation with dTAT, delivery of Cre recombinase was tested. In this assay, Cre induces recombination of a loxP-STOP-loxP sequence upstream of the egfp gene of a reporter plasmid.

[5] = system: HeLa cells; assay: Quantitative determination of peptide uptake inside cells (bulk fluorescence of cell lysates); type: cell-based; settings: acTAT 5-25 μM (FIG. 23)
Procedure: HeLa cells were seeded in a 48 well dish, grown and washed as described above. For the peptide uptake experiment, each well was incubated for 1 h with varying concentration of acTAT, TAT or dTAT (range: 5-25 μM peptide concentration). For the titration experiment, cells were incubated with dTAT (5 μM) and varying concentrations of DEAC-K9 (range: 1-20 μM). Cells were then washed with PBS and nrL-15 and imaged. Multiple images for each condition were obtained and processed. To lyse cells, nrL-15 was removed from the wells and a total of 100 μL of HeLa cell lysis Buffer (50 mM Tris pH 7.5, 2 mM EDTA, 2 mM DTT, 0.1% Triton X-100) was incubated with cells for 5 min. The cells were lysed and scraped off the dish and pipetted into a 1.5 mL microcentrifuge tube. The cell lysates were centrifuged at 13.2K RPM for 25 min. […] The fluorescence from the cell lysates were measured using a plate reader equipped with a fluorescence module (Ex==525, Em=580-640 nm) (GloMax®-Multi+ Detection System, Promega, Fitchburg, Wis.). For the titration experiment, 80 μL of supernatant was diluted to a total volume of 100 μL and the bulk fluorescence was measured using a SLM-8000C fluorometer (Ex=435 nm, Em=465-475 nm) (SLM Instruments, Bath, UK). The fluorescence emission was averaged and recorded. […] The absorbance at 600 nm was measured using the plate reader. […]

[6] = system: NIH 3T3 cells; assay: HoxB4 and TAT-HoxB4 delivery, luciferase reporter under a HoxB4-inducible promoter; type: cell-based, murine
Procedure: Next, the delivery of the therapeutically important transcription factor HoxB4 was tested. HoxB4 can penetrate cells by itself or when fused to the […] TAT and activate transcription. […] NIH 3T3 cells were transfected with a vector containing the luciferase gene under a HoxB4-inducible promoter and with a β-galactosidase reporter as internal control. Cells were incubated with HoxB4 or TAT-HoxB4, in the absence or presence of dTAT for 1.5 h. Cells were then lysed and luciferase expression was assessed by measuring the luminescence of cell lysates normalized to β-galactosidase activity. […] These values are consistent with previously published reports. In contrast, addition of dTAT (3 μM), led to a luciferase induction of 53.1 and 307.4, respectively. The luciferase induction was therefore increased 24-fold in the presence of dTAT for HoxB4 and 61-fold for TAT-HoxB4. […] While increasing the transcriptional output of HoxB4 is valuable, high levels of HoxB4 expression can result in anti-proliferative and transforming effects. Precisely controlling the level and activity of HoxB4 inside cells is therefore important to achieve a desirable biological outcome. Because dTAT appears to act independently of the molecules used for co-incubation in our assays, it was hypothesized that it might be possible to titrate the amount of protein that penetrates cells by varying the protein concentration in the media while keeping dTAT concentration constant. Under this scenario, the efficiency of endosomal escape should remain unaffected but the amount of material released from endosomes should change.
The murine fibroblast cell line (NIH-3T3, stably transfected with the E2A-PBX vector), the luciferase reporter vector, pML (5×HOX/PBX; contains a promoter with binding sites for HOXB4 and PBX) and the β-gal internal control vector used in the following studies were kindly provided by P. Zandstra (University of Toronto, Ontario, Canada). The cells were initially cultured in 100 mm dishes at 37° C. with 5% CO2 in DMEM supplemented with 10% FBS. For experimental purposes, however, cells were seeded in 24-well plates at a density of 5-6×10^4 cells/well for 24 hours. Subsequently, cells were co-transfected with 0.8 μg/mL of pML (5×HOX/PBX) and of the β-gal internal control vector using Lipofectamine 2000. Twelve hours post-transfection, cells were washed and incubated with TAT-HoxB4 or HoxB4 (both at 200 nM, unless otherwise noted; see below) with or without TAT or dTAT in nrL-15 for 90 min. Some cells were also incubated with TAT-mCherry (200 nM) with and without the peptides. After incubation, all cells were washed with PBS and lysed according to the manufacturer's protocol for the reporter lysis buffer (RLB) (Promega). For titration experiments, the same protocol was followed, with the exception that HoxB4 concentrations were varied (25, 50, 100, 150 and 200 nM). In order to quantitate the luciferase reporter activity, 100 μL of luciferase assay reagent (Promega) was added to 20 μL of cell lysate and bioluminescence was immediately measured using a SpectraMaxL luminometer (Sunnyvale, Calif.). […] Absorbance was then measured at 450 nm using the plate reader. Since the absorption spectrum of the chromophore (TMR) conjugated to the peptide used in this study overlaps with that of β-gal, 20 μL of cell lysate containing the peptide was also diluted with 180 μL of the lysis buffer and absorbance values obtained at 450 nm were subtracted from that of the β-gal absorbance values. […]

In the case of CO/C1=C\C(C)=C\[C@@H](C)[C@@H](O)[C@@H](C)C/C(C)=C/C=C/[C@H](OC)[C@@H]([C@@H](C)[C@@H](O)[C@H](C)[C@@]2(O)C[C@@H](O)[C@H](C)[C@@H](C(C)C)O2)OC1=O [bafilomycin, reference compound], the “effect of inhibitor on cytosolic delivery of dTAT” value [1] is reported as “inhibited the cytosolic delivery of dTAT” and the “effect of bafilomycin on dTAT-induced DEAC-K9 redistribution” value [2] is reported as “inhibited”.

With “CK(ε-NH-TMR)TAT ({Cys-K(TMR)}-RKKRRQRRRG-NH2) [monomer product: cysteine, TMR-modified lysine, TAT CPP domain … with C-terminal glycine amide]” the “cellular localization of peptide fluorescence” value (“cellular localization” below) ([3]; 20 μM) was “many cells display cytosolic fluorescence”, the “cellular localization” value ([3]; up to 10 μM) was “localized inside endosomes” and the “percentage of EGFP+ cells” value [4] was 4.8%.

In the case of C(S—CH2CONH2)K(ε-NH-TMR)TAT [acTAT], the “cellular localization” value ([3]; 1-20 μM) is reported as “punctate distribution” and the “endosomal escape when internalized amount is above the dTAT threshold level” value [5] is reported as “does not achieve endosomal escape”.

“HoxB4: transcription factor with therapeutic potential for in vitro expansion of hematopoietic stem cells” was tested, and the “luciferase induction versus HoxB4 concentration” value ([6]; HoxB4 25-200 nM, dTAT 3 μM) was “responded linearly with the concentration of HoxB4 in the media”, the “increase in luciferase activity over cells not treated with protein” value ([6]; protein 200 nM alone, 1.5 h) was 2.2 fold and the luciferase induction ([6]; protein 200 nM with dTAT 3 μM, 1.5 h) was 53.1 fold. For the same compound, the “increase of luciferase induction in the presence of dTAT over protein alone” value ([6]; protein 200 nM, dTAT 3 μM) was 24 fold.

N=C(N)NC(=O)c1nc(Cl)c(N)nc1N [amiloride] was tested, and the “effect of inhibitor on cytosolic delivery of dTAT” value [1] was “inhibited the cytosolic delivery of dTAT”.
